How the values were obtained:
Format in all cases: cell-based
[1] = test system: Saccharomyces cerevisiae wild type strain SU-50; experiment: Growth inhibition (growth curves) of wild type yeast SU-50; conditions: for effect on growth of SU50: 25 mM sugar with 25 μM MB21, 100 cells per ml, vs reference and MB21 alone, effect if any, FIG. 5a
Procedure: (§1) For examples 2, and 4-9 grow-curves were recorded at 25° C. using a microbiology growth reader (Bioscreen C, ex Labsystems). For example 3, growth curve was determined as turbidity, measured by hand at a wave length of 660 nm (OD 660).
a) Saccharomyces cerevisiae strain SU-50 was cultivated in YEPD medium, supplemented with 2% glucose.
b) Growth curves were obtained with the strain SU-50. The cells (about 10 per ml) were cultured in YEPD at 25° C. in the presence or absence of β-gentiobiose or pustulan fragments and MB-21, by using a 24 well plate at room temperature with continuous shaking on a micro-titre plate shaker (mark 4) or a microbiology growth reader (Bioscreen C).
Three YEPD media were prepared, one without MB21, the other YEPD media contained 10 μM MB21 and 20 μM MB21, respectively. To these media β-gentiobiose was added in concentrations of 0, 50, 100 and 200 mM. The yeast strain SU50 was inoculated in these media in a concentration of 10 cells per ml, and cultivated in a 24 well plate at 25° C. Samples were taken from a 24 well plate at regular time intervals, diluted sixty times with distilled water and measured at 660 nm to construct the growth curves.
This example illustrates a relationship between the length of the β-(1,6)-glucan fragments and their effectiveness in competition.
(§2) In this example, three strains are grown in various media in the fashion of example 3, with the exception of being inoculated in the media in a concentration of 100 cells per ml. The sugars used are all comparatives: laminaribiose (β-1,3)-linked D-glucose), sucrose (having a 1,2 link), and sorbitol.
In this example, strain SU 50 was grown three media (see table 2) in the fashion of example 3, with the exception of being inoculated in the media in a concentration of 100 cells per ml.

[2] = test system: Zygosaccharomyces bailii ZB (NCYC 563); experiment: Growth curves of strain ZB; conditions: 200 mM sugar with 6 μM MB21, 100 cells per ml, vs reference and MB21 alone; effect if any; FIG. 5b
Procedure: as §1
c) Zygosaccharomyces bailii ZB: as SU-50 above.
as §2
In this example, strain ZB was grown three media (see table 3) in the fashion of example 3, with the exception of being inoculated in the media in a concentration of 100 cells per ml.

[3] = test system: Zygosaccharomyces bailii G1; experiment: Growth curves / relative inhibition of strain G1; conditions: 200 mM sugar with 6 μM MB21, 100 cells per ml, vs reference and MB21 alone; effect if any; FIG. 5c
Procedure: as §1
d) Zygosaccharomyces bailii G1: as SU-50 above.
as §2
In this example, strain G1 was grown three media (see table 4) in the fashion of example 3, with the exception of being inoculated in the media in a concentration of 100 cells per ml.
In this example, strain G1 was grown in the fashion of example 3 (with the exception of being inoculated in the media in a concentration of 100 cells per ml) in the presence of 6 μM MB21 and 50 mM of a β-(1,6)-glucan. Experiments were done with short-chain β-(1,6)-glucan of variable chain length.

[4] = test system: Saccharomyces cerevisiae strain SU52-pUR5801; experiment: Cell wall protein release test (α-galactosidase-CWP2p secretion into medium); conditions: FIG. 1
Procedure: b) Saccharomyces cerevisiae strain SU52-pUR5801 was cultivated in Difco yeast nitrogen base (YNB), supplemented with 2% glucose and 0.004% histidine. After the culture had reached the late log-phase, the cells were cultivated further (a 10% inoculum) in YEPD medium, consisting of 1% Difco yeast extract, 2% Bacto-peptone, supplemented with 0.5% glucose and 5% galactose.
a) Saccharomyces cerevisiae strain SU52-pUR 5801 was grown in YNB and YEPD media, at 30° C. with shaking at 225 rpm in an orbital incubator until a OD (660 nm) between 5 and 6 was reached. In parallel experiments several concentrations of β-gentiobiose or pustulan fragments were included in the media. After cultivation, the media were separated from the cells by centrifugation (10.000×g for 15 min at 4° C.). The media were then filtered using […] filters. Secretion of α-(-galactosidase-CWP2p was assessed by measuring α-(-galactosidase enzyme activity in the media (see further on). […]
β-Gentiobiose was dissolved in YEPD media supplemented with 5% galactose, in concentrations of 10, 50 and 100 mM respectively. […] The enzyme activity of the fusion protein CWP2-α-galactosidase was measured as described in the α-galactosidase assay.

Structure (SMILES) | effect on growth of SU50 [1] | effect on growth of ZB [2] | effect on growth of G1 [3] | influence on the growth of SU-50 ([1]; β-gentiobiose as such (0, 50, 100, 200 mM, no MB21), 10 cells per ml, 25° C., OD 660, FIG. 3) | relationship between concentration and secretion of the fusion construct ([4]; at least up to 100 mM β-gentiobiose) | secretion (release) of the fusion protein α-galactosidase-CW2p from the cell wall ([4]; β-gentiobiose 10, 50 and 100 mM in YEPD with 5% galactose, 30° C., 18 hours)
OC[C@H]1O[C@@H](O[C@H]2[C@H](O)[C@@H](CO)OC(O)[C@@H]2O)[C@H](O)[C@@H](O)[C@@H]1O (stereo partly shown) [laminaribiose] | stimulating effect | – | – | – | – | –
OC[C@@H](O)[C@@H](O)[C@H](O)[C@@H](O)CO [sorbitol] | stimulating effect | stimulating effect | stimulating effect | – | – | –
OC[C@H]1O[C@@](CO)(O[C@H]2O[C@H](CO)[C@@H](O)[C@H](O)[C@H]2O)[C@@H](O)[C@@H]1O [sucrose] | stimulating effect | stimulating effect | stimulating effect | – | – | –
OC[C@H]1O[C@@H](OC[C@H]2O[C@@H](O)[C@H](O)[C@@H](O)[C@@H]2O)[C@H](O)[C@@H](O)[C@@H]1O [β-gentiobiose, 6-O-β-glucopyranosyl-β-D-glucose] | – | – | – | no influence | linear relationship | concentration dependent

— patent US6280725A, “Compositions and methods for inhibiting the growth of fungi” (Lipton, division of Conopco, Inc., priority 2000, dated 2001)
